Values joined by “and” are separate entries in the source; they are usually repeats but may differ in a detail not shown here. Equal values may be shown once. Toxic doses and inconclusive results are not listed.
Tested on: L1210 leukemia ip in BDF1 mice, survival T/C
Experiment: NCI In Vivo Anticancer Drug Screen. Data for tumor model L1210 Leukemia (intraperitoneal) in B6D2F1 (BDF1) mice
Conditions: endpoint: mean survival time, higher = longer survival
In short: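 Mice bearing the transplanted tumor received compound or vehicle. Survival of the treated group was divided by that of the vehicle-treated control group to give the ratio.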

O=C(Nc1ccc(C2=NCCCN2)cc1)c1ccc(NC(=O)c2ccc(C3=NCCCN3)cc2)cc1
T/C (dose: 0.03 mg/kg/injection, schedule: Q01DX Z (iv), vehicle: water): 107 % of control
T/C (dose: 0.06 mg/kg/injection, schedule: Q01DX Z (iv), vehicle: water): 102 % of control
T/C (dose: 0.12 mg/kg/injection, schedule: Q01DX Z (ip), vehicle: carboxymethylcellulose (CMC)): 102 % of control
T/C (dose: 0.12 mg/kg/injection, schedule: Q01DX Z (iv), vehicle: water): 113 % of control
T/C (dose: 0.2 mg/kg/injection, schedule: Q01DX006 (iv), vehicle: carboxymethylcellulose (CMC)): 119 % of control
T/C (dose: 0.25 mg/kg/injection, schedule: Q01DX Z (ip), vehicle: carboxymethylcellulose (CMC)): 103 % of control
T/C (dose: 0.25 mg/kg/injection, schedule: Q01DX Z (iv), vehicle: water): 94 % of control
T/C (dose: 0.4 mg/kg/injection, schedule: Q01DX006 (iv), vehicle: carboxymethylcellulose (CMC)): 113 % of control
T/C (dose: 0.5 mg/kg/injection, schedule: Q01DX Z (ip), vehicle: carboxymethylcellulose (CMC)): 107 % of control
T/C (dose: 0.5 mg/kg/injection, schedule: Q01DX Z (sc), vehicle: saline): 108 % of control
T/C (dose: 0.6 mg/kg/injection, schedule: Q01DX006 (iv), vehicle: carboxymethylcellulose (CMC)): 120 % of control
T/C (dose: 0.8 mg/kg/injection, schedule: Q01DX006 (iv), vehicle: carboxymethylcellulose (CMC)): 111 % of control
T/C (dose: 0.94 mg/kg/injection, schedule: Q01DX Z (ip), vehicle: saline): 120 % of control
T/C (dose: 1.0 mg/kg/injection, schedule: Q01DX Z (sc), vehicle: saline): 110 % of control
T/C (dose: 1.76 mg/kg/injection, schedule: Q01DX015 (ip), vehicle: carboxymethylcellulose (CMC)): 154 % of control
T/C (dose: 2.0 mg/kg/injection, schedule: Q01DX010 (ip), vehicle: other): 160 % of control and 162 % of control
T/C (dose: 2.0 mg/kg/injection, schedule: Q01DX Z (sc), vehicle: saline): 110 % of control
T/C (dose: 2.6 mg/kg/injection, schedule: Q01DX015 (ip), vehicle: carboxymethylcellulose (CMC)): 230 % of control
T/C (dose: 3.75 mg/kg/injection, schedule: Q01DX Z (ip), vehicle: saline): 245 % of control
T/C (dose: 4.0 mg/kg/injection, schedule: Q01DX010 (ip), vehicle: other): 215 % of control and 217 % of control and 251 % of control
T/C (dose: 4.0 mg/kg/injection, schedule: Q01DX015 (ip), vehicle: carboxymethylcellulose (CMC)): 305 % of control
T/C (dose: 4.0 mg/kg/injection, schedule: Q01DX Z (sc), vehicle: saline): 156 % of control and 195 % of control
T/C (dose: 6.0 mg/kg/injection, schedule: Q01DX015 (ip), vehicle: carboxymethylcellulose (CMC)): 319 % of control
T/C (dose: 8.0 mg/kg/injection, schedule: Q01DX010 (ip), vehicle: other): 245 % of control and 258 % of control and 345 % of control
T/C (dose: 8.0 mg/kg/injection, schedule: Q01DX Z (sc), vehicle: saline): 259 % of control
T/C (dose: 9.0 mg/kg/injection, schedule: Q01DX015 (ip), vehicle: carboxymethylcellulose (CMC)): 180 % of control
T/C (dose: 10.0 mg/kg/injection, schedule: Q01DX010 (sc), vehicle: saline): 106 % of control
T/C (dose: 10.0 mg/kg/injection, schedule: Q02DX004 (im), vehicle: olive oil, sesame oil, peanut oil): 154 % of control and 178 % of control
T/C (dose: 14.0 mg/kg/injection, schedule: Q01DX001 (ip), vehicle: other): 156 % of control
T/C (dose: 16.0 mg/kg/injection, schedule: Q01DX010 (ip), vehicle: other): 97 % of control and 98 % of control and 100 % of control
T/C (dose: 16.0 mg/kg/injection, schedule: Q01DX Z (sc), vehicle: carboxymethylcellulose (CMC)): 102 % of control
T/C (dose: 16.0 mg/kg/injection, schedule: Q01DX Z (sc), vehicle: saline): 124 % of control
T/C (dose: 20.0 mg/kg/injection, schedule: Q01DX001 (im), vehicle: steriod suspending solution): 110 % of control
T/C (dose: 20.0 mg/kg/injection, schedule: Q01DX010 (sc), vehicle: olive oil, sesame oil, peanut oil): 87 % of control
T/C (dose: 20.0 mg/kg/injection, schedule: Q01DX010 (sc), vehicle: saline): 87 % of control
T/C (dose: 20.0 mg/kg/injection, schedule: Q02DX004 (im), vehicle: olive oil, sesame oil, peanut oil): 250 % of control and 285 % of control
T/C (dose: 21.0 mg/kg/injection, schedule: Q01DX001 (ip), vehicle: carboxymethylcellulose (CMC)): 156 % of control
T/C (dose: 21.0 mg/kg/injection, schedule: Q01DX001 (ip), vehicle: saline): 159 % of control and 172 % of control
T/C (dose: 32.0 mg/kg/injection, schedule: Q01DX001 (ip), vehicle: carboxymethylcellulose (CMC)): 172 % of control
T/C (dose: 32.0 mg/kg/injection, schedule: Q01DX001 (ip), vehicle: other): 202 % of control
T/C (dose: 32.0 mg/kg/injection, schedule: Q01DX001 (ip), vehicle: saline): 196 % of control
T/C (dose: 40.0 mg/kg/injection, schedule: Q01DX001 (im), vehicle: steriod suspending solution): 173 % of control
T/C (dose: 40.0 mg/kg/injection, schedule: Q02DX004 (im), vehicle: olive oil, sesame oil, peanut oil): 100 % of control and 86 % of control
T/C (dose: 48.0 mg/kg/injection, schedule: Q01DX001 (ip), vehicle: carboxymethylcellulose (CMC)): 219 % of control
T/C (dose: 48.0 mg/kg/injection, schedule: Q01DX001 (ip), vehicle: saline): 243 % of control and 247 % of control
T/C (dose: 62.0 mg/kg/injection, schedule: Q01DX Z (oral), vehicle: carboxymethylcellulose (CMC)): 102 % of control
T/C (dose: 62.5 mg/kg/injection, schedule: Q01DX010 (oral), vehicle: other): 105 % of control
T/C (dose: 72.0 mg/kg/injection, schedule: Q01DX001 (ip), vehicle: saline): 103 % of control and 229 % of control
T/C (dose: 90.0 mg/kg/injection, schedule: Q#A X Z (oral), vehicle: carboxymethylcellulose (CMC)): 100 % of control
T/C (dose: 125.0 mg/kg/injection, schedule: Q01DX010 (oral), vehicle: other): 177 % of control
T/C (dose: 125.0 mg/kg/injection, schedule: Q01DX Z (oral), vehicle: carboxymethylcellulose (CMC)): 105 % of control
T/C (dose: 125.0 mg/kg/injection, schedule: Q01DX Z (oral), vehicle: saline): 92 % of control
T/C (dose: 135.0 mg/kg/injection, schedule: Q#A X Z (oral), vehicle: carboxymethylcellulose (CMC)): 91 % of control
T/C (dose: 180.0 mg/kg/injection, schedule: Q01DX Z (oral), vehicle: carboxymethylcellulose (CMC)): 108 % of control
T/C (dose: 202.5 mg/kg/injection, schedule: Q#A X Z (oral), vehicle: carboxymethylcellulose (CMC)): 115 % of control
T/C (dose: 250.0 mg/kg/injection, schedule: Q01DX010 (oral), vehicle: other): 194 % of control
T/C (dose: 250.0 mg/kg/injection, schedule: Q01DX Z (oral), vehicle: carboxymethylcellulose (CMC)): 120 % of control
T/C (dose: 250.0 mg/kg/injection, schedule: Q01DX Z (oral), vehicle: saline): 89 % of control
T/C (dose: 270.0 mg/kg/injection, schedule: Q01DX Z (oral), vehicle: carboxymethylcellulose (CMC)): 102 % of control
T/C (dose: 405.0 mg/kg/injection, schedule: Q01DX Z (oral), vehicle: carboxymethylcellulose (CMC)): 120 % of control
T/C (dose: 500.0 mg/kg/injection, schedule: Q01DX010 (oral), vehicle: other): 122 % of control
T/C (dose: 500.0 mg/kg/injection, schedule: Q01DX Z (oral), vehicle: saline): 113 % of control
T/C (dose: 540.0 mg/kg/injection, schedule: Q03DX Z (oral), vehicle: carboxymethylcellulose (CMC)): 98 % of control
T/C (dose: 800.0 mg/kg/injection, schedule: Q03DX Z (oral), vehicle: carboxymethylcellulose (CMC)): 112 % of control
T/C (dose: 1200.0 mg/kg/injection, schedule: Q03DX Z (oral), vehicle: carboxymethylcellulose (CMC)): 120 % of control
T/C (dose: 1200.0 mg/kg/injection, schedule: Q07DX Z (oral), vehicle: carboxymethylcellulose (CMC)): 95 % of control
T/C (dose: 1800.0 mg/kg/injection, schedule: Q07DX Z (oral), vehicle: carboxymethylcellulose (CMC)): 106 % of control
T/C (dose: 2700.0 mg/kg/injection, schedule: Q07DX Z (oral), vehicle: carboxymethylcellulose (CMC)): 124 % of control

Reference: PubChem BioAssay AID248 (DTP/NCI, 2004)
